Source: US20220151962A1, “NOVEL INHIBITORS OF HISTONE DEACETYLASE 10” (Deutsches Krebsforschungszentrum, priority 2019, published 2022)

Columns and labels:
[1] = biological target: T1, HDAC1 (Homo sapiens, UniProt Q13547); assay: HDAC-Glo I/II assay, HDAC1; type: biochemical; conditions: recombinant human HDAC1, HDAC-Glo; read-out: pIC50 HDAC1 Glo (converted)
T1 construct: purchased BPS Bioscience 50051

[2] = biological target: T2, HDAC2 (Homo sapiens, UniProt Q92769); assay: HDAC-Glo I/II assay, HDAC2; type: biochemical; conditions: recombinant human HDAC2, HDAC-Glo; read-out: pIC50 HDAC2 Glo (converted)
T2 construct: purchased BPS Bioscience 50002

[3] = biological target: T3, HDAC3/NcoR2 complex (Homo sapiens, UniProt O15379); assay: HDAC-Glo I/II assay, HDAC3/NcoR2 complex; type: biochemical; conditions: recombinant human HDAC3/NcoR2 complex, read-out: pIC50 HDAC3 Glo (converted)
T3 construct: purchased BPS Bioscience 50003

[4] = biological target: T4, HDAC6 (Homo sapiens, UniProt Q9UBN7); assay: HDAC-Glo I/II assay, HDAC6; type: biochemical; conditions: recombinant human HDAC6, HDAC-Glo; read-out: pIC50 HDAC6 Glo (converted)
T4 construct: purchased BPS Bioscience 50006
T4 sequence (Q9UBN7 1-1215): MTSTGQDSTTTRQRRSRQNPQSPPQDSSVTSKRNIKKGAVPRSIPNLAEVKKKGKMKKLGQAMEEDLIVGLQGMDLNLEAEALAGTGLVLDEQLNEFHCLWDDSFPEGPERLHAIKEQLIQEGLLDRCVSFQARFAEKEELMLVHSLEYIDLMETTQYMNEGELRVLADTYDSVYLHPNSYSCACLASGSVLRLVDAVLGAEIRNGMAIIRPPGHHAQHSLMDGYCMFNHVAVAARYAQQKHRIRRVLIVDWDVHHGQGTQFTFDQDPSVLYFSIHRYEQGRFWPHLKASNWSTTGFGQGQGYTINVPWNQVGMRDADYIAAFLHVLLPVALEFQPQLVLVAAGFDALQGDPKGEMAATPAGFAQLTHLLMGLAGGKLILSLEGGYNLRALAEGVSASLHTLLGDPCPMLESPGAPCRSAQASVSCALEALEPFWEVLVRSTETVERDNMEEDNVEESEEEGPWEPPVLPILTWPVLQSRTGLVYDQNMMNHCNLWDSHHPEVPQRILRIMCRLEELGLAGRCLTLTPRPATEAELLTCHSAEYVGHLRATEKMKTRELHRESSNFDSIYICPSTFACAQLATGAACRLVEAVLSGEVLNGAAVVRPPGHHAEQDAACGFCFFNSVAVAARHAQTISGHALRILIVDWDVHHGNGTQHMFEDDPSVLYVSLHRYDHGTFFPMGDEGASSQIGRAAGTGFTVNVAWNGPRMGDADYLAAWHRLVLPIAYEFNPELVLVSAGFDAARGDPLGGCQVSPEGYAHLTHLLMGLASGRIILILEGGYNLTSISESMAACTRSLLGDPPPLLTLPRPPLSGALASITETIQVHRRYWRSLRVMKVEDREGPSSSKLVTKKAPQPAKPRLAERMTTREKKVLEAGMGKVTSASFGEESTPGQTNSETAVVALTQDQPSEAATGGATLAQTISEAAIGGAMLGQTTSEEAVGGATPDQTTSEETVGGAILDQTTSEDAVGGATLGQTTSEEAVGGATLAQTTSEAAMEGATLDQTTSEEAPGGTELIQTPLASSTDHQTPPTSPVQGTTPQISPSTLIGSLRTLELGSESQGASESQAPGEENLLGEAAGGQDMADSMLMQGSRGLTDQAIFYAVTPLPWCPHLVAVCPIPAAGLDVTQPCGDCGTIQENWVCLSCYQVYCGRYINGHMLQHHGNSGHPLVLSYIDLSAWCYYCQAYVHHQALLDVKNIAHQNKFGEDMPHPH

[5] = biological target: T5, TwinStrep-GST-HDAC10 (Homo sapiens, UniProt Q969S8); assay: HDAC10 TR-FRET assay (Tubastatin-AF647-Tracer displacement); type: binding; conditions: TR-FRET, 60 min at rt; read-out: pIC50 HDAC10 FRET (converted)
T5 construct: made in house; host or cells: Sf21 insect cells (baculovirus, pFastBac1)
T5 sequence (Q969S8 1-669): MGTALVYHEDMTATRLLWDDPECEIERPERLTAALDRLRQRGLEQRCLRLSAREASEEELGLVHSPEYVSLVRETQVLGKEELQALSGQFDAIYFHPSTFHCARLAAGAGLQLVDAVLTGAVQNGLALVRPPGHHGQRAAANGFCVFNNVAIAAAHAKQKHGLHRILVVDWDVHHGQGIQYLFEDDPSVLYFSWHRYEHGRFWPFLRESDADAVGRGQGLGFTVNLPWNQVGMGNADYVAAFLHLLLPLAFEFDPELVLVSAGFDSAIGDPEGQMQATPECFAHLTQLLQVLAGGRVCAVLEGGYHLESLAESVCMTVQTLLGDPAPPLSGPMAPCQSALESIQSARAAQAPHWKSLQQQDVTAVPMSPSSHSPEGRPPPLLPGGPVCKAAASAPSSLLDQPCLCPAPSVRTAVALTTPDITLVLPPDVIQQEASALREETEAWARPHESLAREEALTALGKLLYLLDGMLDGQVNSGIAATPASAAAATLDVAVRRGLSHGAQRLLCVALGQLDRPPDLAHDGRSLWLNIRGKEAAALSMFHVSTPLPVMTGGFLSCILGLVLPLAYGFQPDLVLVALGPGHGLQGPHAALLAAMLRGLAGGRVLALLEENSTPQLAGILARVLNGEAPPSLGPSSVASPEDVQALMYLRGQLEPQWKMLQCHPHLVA

[6] = biological target: T6, HDAC8 (Homo sapiens, UniProt Q9BY41); assay: HDAC-Glo I/II assay, HDAC8; type: biochemical; design: purchased BPS Bioscience 50008; conditions: recombinant human HDAC8, HDAC-Glo; read-out: pIC50 HDAC8 Glo (converted)
T6 sequence (Q9BY41 1-377): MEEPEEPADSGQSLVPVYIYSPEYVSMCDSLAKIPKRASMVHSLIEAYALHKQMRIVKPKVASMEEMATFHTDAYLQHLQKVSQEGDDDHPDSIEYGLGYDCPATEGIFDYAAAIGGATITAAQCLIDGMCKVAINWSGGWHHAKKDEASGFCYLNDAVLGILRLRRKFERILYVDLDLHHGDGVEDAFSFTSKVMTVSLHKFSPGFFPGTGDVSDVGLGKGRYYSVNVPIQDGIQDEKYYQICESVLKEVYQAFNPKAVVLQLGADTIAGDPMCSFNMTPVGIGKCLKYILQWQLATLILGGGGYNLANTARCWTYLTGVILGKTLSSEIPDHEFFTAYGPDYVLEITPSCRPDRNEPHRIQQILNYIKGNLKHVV

[7] = biological target: T7, HDAC6 (2nd catalytic domain)-nanoluciferase fusion in HeLa cells (Homo sapiens, UniProt Q9UBN7); assay: BRET intracellular target engagement assay, HDAC6
T7 sequence (Q9UBN7 482-800 limits assumed): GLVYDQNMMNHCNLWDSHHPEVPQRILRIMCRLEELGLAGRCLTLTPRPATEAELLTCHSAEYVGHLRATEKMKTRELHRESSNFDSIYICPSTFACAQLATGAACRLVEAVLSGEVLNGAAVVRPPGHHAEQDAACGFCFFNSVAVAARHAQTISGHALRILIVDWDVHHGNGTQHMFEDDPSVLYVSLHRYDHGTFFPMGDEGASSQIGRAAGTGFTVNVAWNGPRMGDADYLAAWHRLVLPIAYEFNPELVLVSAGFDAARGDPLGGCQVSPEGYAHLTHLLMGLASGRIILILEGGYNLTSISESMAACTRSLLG

[8] = biological target: T8, HDAC10-nanoluciferase fusion in HeLa cells (Homo sapiens, UniProt Q969S8); assay: BRET intracellular target engagement assay, HDAC10; conditions: for HDAC10/6 fold selectivity (BRET): HDAC10 over HDAC6, from BRET
T8 sequence (Q969S8 1-669): T5 sequence (Q969S8 1-669)

[9] = Solubility in water (observation during purification); type: physicochemical
[10] = Stability on exposure to air (observation); type: physicochemical; conditions: especially in solution

T1 sequence (Q13547 whole entry): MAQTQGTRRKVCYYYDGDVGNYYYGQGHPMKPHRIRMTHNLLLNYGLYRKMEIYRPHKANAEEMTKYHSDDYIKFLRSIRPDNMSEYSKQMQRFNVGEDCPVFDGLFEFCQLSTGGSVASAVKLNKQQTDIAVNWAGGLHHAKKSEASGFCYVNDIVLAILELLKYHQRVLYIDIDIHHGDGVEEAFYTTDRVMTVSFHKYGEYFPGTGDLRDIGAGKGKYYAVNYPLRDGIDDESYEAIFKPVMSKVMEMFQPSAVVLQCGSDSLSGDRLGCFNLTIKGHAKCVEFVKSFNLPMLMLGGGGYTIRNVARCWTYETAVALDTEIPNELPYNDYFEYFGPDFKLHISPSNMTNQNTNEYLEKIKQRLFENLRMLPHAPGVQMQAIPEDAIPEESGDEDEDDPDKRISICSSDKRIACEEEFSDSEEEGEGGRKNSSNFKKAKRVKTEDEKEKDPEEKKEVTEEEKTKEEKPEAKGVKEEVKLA
T3 sequence (O15379 whole entry): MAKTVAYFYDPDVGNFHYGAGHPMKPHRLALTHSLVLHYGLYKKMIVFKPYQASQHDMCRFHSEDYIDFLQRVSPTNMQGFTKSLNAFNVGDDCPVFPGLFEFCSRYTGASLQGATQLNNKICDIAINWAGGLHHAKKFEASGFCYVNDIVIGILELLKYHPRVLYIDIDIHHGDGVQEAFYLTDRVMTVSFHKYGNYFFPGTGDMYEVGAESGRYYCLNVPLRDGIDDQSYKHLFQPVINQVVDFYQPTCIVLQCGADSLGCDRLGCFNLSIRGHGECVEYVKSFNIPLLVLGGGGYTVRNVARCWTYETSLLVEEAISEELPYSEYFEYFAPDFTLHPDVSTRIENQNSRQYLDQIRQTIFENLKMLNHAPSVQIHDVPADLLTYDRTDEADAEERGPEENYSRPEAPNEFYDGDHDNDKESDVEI
T3 sequence (Q9Y618 395-489 partner limits assumed): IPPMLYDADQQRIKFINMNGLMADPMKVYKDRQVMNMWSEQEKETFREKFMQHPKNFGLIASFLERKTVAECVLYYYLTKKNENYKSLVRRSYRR
T2 sequence (Q92769 whole entry): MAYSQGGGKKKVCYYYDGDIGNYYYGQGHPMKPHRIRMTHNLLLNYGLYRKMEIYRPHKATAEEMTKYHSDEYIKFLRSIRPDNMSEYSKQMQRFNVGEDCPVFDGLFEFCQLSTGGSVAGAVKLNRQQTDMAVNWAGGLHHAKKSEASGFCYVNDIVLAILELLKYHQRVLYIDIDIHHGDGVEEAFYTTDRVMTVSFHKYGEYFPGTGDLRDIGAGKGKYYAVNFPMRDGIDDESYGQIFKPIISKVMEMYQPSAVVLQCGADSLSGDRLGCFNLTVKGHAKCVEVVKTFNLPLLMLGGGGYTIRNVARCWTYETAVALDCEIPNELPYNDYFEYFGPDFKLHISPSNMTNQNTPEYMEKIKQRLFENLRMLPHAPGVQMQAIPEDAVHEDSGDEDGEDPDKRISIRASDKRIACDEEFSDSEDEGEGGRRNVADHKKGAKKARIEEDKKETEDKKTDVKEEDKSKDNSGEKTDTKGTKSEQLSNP

| Compound | IC50 [1] [µM] | IC50 [2] [µM] | IC50 [3] [µM] | IC50 [4] [µM] | IC50 [5] [µM] | IC50 [6] [µM] | IC50 [7] [µM] | IC50 [8] [µM] | HDAC10/6 fold selectivity (BRET) [8] [fold] | solubility in water [9] | stability when exposed to air [10] |
| --- | --- | --- | --- | --- | --- | --- | --- | --- | --- | --- | --- |
| CCCCN(CCCC(=O)NO)CCC(=O)Nc1ccccc1 [DKFZ-717, 4-(Butyl(3-oxo-3-(phenylamino)propyl)amino)-N-hydroxybutanamide] | 79.4 | > 200 | ~200 | 5.01 | 0.631 | 7.94 | > 39.8 | 1.58 | 38 | – | – |
| O=C(CC1CN(CCC(=O)Nc2ccccc2)C1)NO [DKFZ-770, 3-(3-(2-(Hydroxyamino)-2-oxoethyl)azetidin-1-yl)-N-phenylpropanamide] | 50.1 | 79.4 | > 100 | 6.31 | 0.158 | 20 | > 39.8 | 2 | >20 | – | – |
| O=C(CCCN(CCC(=O)Nc1ccccc1)C1CC1)NO [DKFZ-724, 4-(Cyclopropyl(3-oxo-3-(phenylamino)propyl)amino)-N-hydroxybutanamide] | 39.8 | > 200 | 126 | 3.16 | 0.251 | 2 | > 39.8 | 0.398 | >110 | – | – |
| C[N+](C)(CCCC(=O)[N-]O)CCNC(=O)c1ccccc1 [DKFZ-777, (4-((2-Benzamidoethyl)dimethylammonio)butanoyl)(hydroxy)amide] | > 100 | > 100 | > 100 | > 100 | 0.398 | > 100 | > 39.8 | 31.6 | >1 | poorly soluble in water | – |
| CC(C)N(CCCC(=O)NO)CCC(=O)Nc1ccccc1 [DKFZ-715, 4-(Isopropyl(3-oxo-3-(phenylamino)propyl)amino)-N-hydroxybutanamide] | 398 | > 200 | < 200 | 12.6 | 0.631 | 5.01 | > 39.8 | 2 | >21 | – | – |

Other lines, results leading:

| IC50 [1] [µM] | IC50 [2] [µM] | IC50 [3] [µM] | IC50 [4] [µM] | IC50 [5] [µM] | IC50 [6] [µM] | IC50 [7] [µM] | IC50 [8] [µM] | HDAC10/6 fold selectivity (BRET) [8] [fold] | solubility in water [9] | stability when exposed to air [10] | Compound |
| --- | --- | --- | --- | --- | --- | --- | --- | --- | --- | --- | --- |
| 10 | > 100 | > 100 | 6.31 | 0.00794 | ~25.1 | 25.1 | 0.0631 | 423 | – | – | CN(CCCC(=O)NO)CCNC(=O)c1cccc2cn[nH]c12 [DKFZ-757, N-(2-((4-(Hydroxyamino)-4-oxobutyl)(methyl)amino)ethyl)-1H-indazole-7-carboxamide] |
| 6.31 | 12.6 | > 100 | 2.51 | 0.00316 | 1.26 | ~12.6 | 0.0316 | 398 | – | – | COc1ccc(C(=O)NCCN(C)CCCC(=O)NO)c2ccccc12 [DKFZ-774, N-(2-((4-(Hydroxyamino)-4-oxobutyl)(methyl)amino)ethyl)-4-methoxy-1-naphthamide] |
| 15.8 | > 100 | > 100 | 6.31 | 0.02 | ~25.1 | > 39.8 | 2 | >21 | – | – | CN(CCCC(=O)NO)CCNC(=O)c1ccc(/C(N)=N/O)cc1 [DKFZ-750, N-(2-((4-(Hydroxyamino)-4-oxobutyl)(methyl)amino)ethyl)-4-(M-hydroxycarbamimidoyl)benzamide] |
| 12.6 | 12.6 | > 100 | 3.98 | 0.0126 | > 100 | – | – | – | – | form the disulfide when exposed to air | CN(CCNC(=O)CS)CCNC(=O)c1ccccc1 [DKFZ-825, N-(2-((2-(2-Mercaptoacetamido)ethyl)(methyl)amino)ethyl)benzamide] |
